Measured values from US10294457B2, “Maturation of hepatocyte-like cells derived from human pluripotent stem cells” (Takara Bio Europe AB, priority 2012, dated 2019).

Key:
hESC-derived hepatocytes [1] = system: hESC-derived hepatocytes
Description: Following the basic protocol A, differentiating hES cell derived hepatic progenitors and hepatocyte-like cells cultured on a Gelatin-based coating were treated with 1 μM 9-cis retinoic acid for 5, 24 or 48 hr exposures on days 21, 22 or 23 of the protocol (i.e. on day 7, 8 or 9 of the differentiation and maturation phase; FIG. 2 A, B, D), repeated 5 hr exposures on days 11, 16, 23, 25 and 30 of the protocol (i.e. on day 4 of the pre-hepatic phase and days 2, 9, 11 and 16 of the differentiation and maturation phase; FIG. 2 C), or long term/continuous treatment from day 14 and onwards (i.e.starting on day 1 of the differentiation and maturation phase; FIG. 2D).
Immediately after end of the RA treatment, the cell cultures are subjected to a CYP activity assay according to the following protocol: Cells are washed twice with warm Williams medium E w/o phenol red (+0.1% PEST). Then CYP activity assay, consisting of warm Williams medium E w/o phenol red (+0.1% PEST), 2 mM L-Glutamine, 25 mM HEPES, 26 μM Phenacetin (model substrate for CYP1A), 9 μM Diclofenac (model substrate for CYP2C9) and 3 μM Midazolam (model substrate for CYP3A), is added to the cells (e.g. 220 μl/24 well) and incubated for 16 hr at 37° C. Then supernatant is collected and centrifuged for 20 min at 10.000 rcf at 4° C. Subsequently, 120 μl of the supernatant is transferred into a 96 well plate which is sealed with a tight seal tape and stored at −20 or −80° C. until LC/MS-analysis of metabolite formation: Acetaminophen (Paracetamol) for CYP1A, OH-Diclofenac for CYP2C9 and OH-Midazolam for CYP3A.

[2] = system: hepatocyte-like cells derived from hES cells; assay: HNF4α TaqMan assays: HNF4α isoform expression after 9 cis-retinoic acid (Example 3); assay type: cell-based, human; conditions: for expression of the adult HNF4a1-3 isoforms / expression of the fetal HNF4a4-9 isoforms: 1 or 2 μM
Description: Three different HNF4α-TaqMan assays were used for analysis of HNF4α expression: one assay detecting all 9 HNF4α isoforms, one assay detecting isoforms 1-3 (including the adult isoforms 1 and 2) and one assay detecting isoforms 4-9 (including the fetal isoforms 7 and 8). Isoforms 3, 4, 5, 6 and 9 are not expressed at all in vivo or at very low levels and can therefore be neglected.

[3] = system: hES cell derived hepatocyte-like cells; assay: qRT-PCR gene expression after RA treatment, basic protocol A (Example 5)
Description: Following the basic protocol A, hES cell derived hepatocyte-like cells cultured on a Gelatin-based coating were treated with 1 μM 9-cis retinoic acid for 5 hr on day 21 of the protocol (i.e. on day 7 of the differentiation and maturation phase) or 24 hr on day 22-23 of the protocol (i.e. on day 8-9 of the differentiation and maturation phase).
Cells were harvested on day 21 or 23 of the protocol (i.e. on day 7 or 9 of the differentiation and maturation phase) and gene expression was analysed using qRT-PCR, normalised to the house-keeping gene CREBBP and the results presented as relative quantification normalised to a calibrator (FIG. 3.)

RXR = conditions: cited from earlier work; for affinity of binding to RXR: compared with 9-cis-retinoic acid (Heyman et al.)
[4] = system: hiPSC-derived hepatocytes; assay: CYP activity assay, early 5-aza-2-deoxycytidine plus late RA, Kenpaullone and matrix overlay (Example 8); assay type: cell-based, human; conditions: additional effect of treatment with the DNA demethylation agent on day 2-3
Description: (§1) Following the basic protocols C (hESC-derived hepatocytes) or D (hiPSC-derived hepatocytes), differentiating hES and hiPS cells in the pre-endodermal phase were treated with 10 nM of the DNA demethylating agent 5-aza-2-deoxycytidine for 24 hr on day 2 to 3 of the protocol.
(§2) Later in the protocol, hPS cell derived hepatic progenitor cells and hepatocyte-like cells cultured on a Fibronectin-based coating were treated with continuous/long term treatment with 0.2 μM 9cis-RA and 0.5 μM Kenpaullone starting on day 14 of the protocol (i.e. on day 1 of the differentiation and maturation phase) and received thin Fibronectin-Collagen I-overlays on day 14 and 16 of the protocol (i.e. on day 1 and 3 of the differentiation and maturation phase) and is refreshed thereafter once a week on day 23, 30, 37 and so on (i.e. on day 9, 16, 23 and so on of the differentiation and maturation phase).
(§3) For analysing functional expression of CYP enzymes on day 36 (i.e. on day 22 of the maturation step; FIG. 10), the cell cultures are subjected to a CYP activity assay according to the following protocol: Cells are washed twice with warm Williams medium E w/o phenol red (+0.1% PEST). […]

hESC-derived hepatocytes [5] = assay: as above; assay type: cell-based, human; conditions: additional effect of treatment with the DNA demethylation agent on day 2-3
Description: as §1, §2, §3

[6] = system: DE derived from hPSC lines P11032, SA181 and P11012; assay: qRT-PCR of stem cell and DE markers in DE, 5-aza-2-deoxycytidine or 5-azacytidine (Example 12); assay type: cell-based, human; conditions: 10 nM 5-aza-2-deoxycytidine or 1 μM 5-azacytidine on day 2-3; day 7
Description: Following the basic protocols C (P11032, SA181) or D (P11012), cells derived from 3 different hPSC lines were treated with either 10 nM 5-aza-2-deoxycytidine or 1 μM 5-azacytidine on day 2-3 during the pre-endodermal phase.

RAR = conditions: Allenby et al.; Idres et al.; cited from earlier work
[7] = system: hiPSC-derived hepatocytes; assay: CYP activity assay, 9cis-RA or other RXR- and RAR-agonists (Example 15); assay type: cell-based, human; conditions: instead of 0.2 μM 9cis-RA: 0.5 μM ATRA, 5 μM AM580, 0.2 μM 13cis-RA, 5 μM LGD1069, 5 μM LG100268 or 5 μM SR11237; with Kenpaullone, overlay, early 5-aza-2-deoxycytidine; day 36
Description: Some experimental groups were treated with 0.5 μM all trans-retinoic acid (ATRA), 5 μM AM580, 0.2 μM 13cis-RA, 5 μM LGD1069, 5 μM LG100268 or 5 μM SR11237 instead of 0.2 μM 9cis-RA.

[8] = 24-, 48 hr-exposure and continuous RA-treatment
[9] = 5 hr RA-exposure, day 23, analysed immediately after the exposure
[10] = continuous/long-term RA treatment versus 5 and 24 hr RA exposures

9-cis-retinoic acid [RA]
CYP1A activity (hESC-derived hepatocytes [1]): strongest increase
CYP1A, 2C9 and 3A activities (hESC-derived hepatocytes [1]): increased
CYP1A, CYP2C9 and 3A activities (hESC-derived hepatocytes [1]): increase
CYP1A-, 2C9- and 3A-activity (hESC-derived hepatocytes [1]): significant increase
CYP1A-activity (hESC-derived hepatocytes [1]): increase
CYP3A activity (hESC-derived hepatocytes [1]): strongest increase
effect on CYP1A and 2C9 activity (hESC-derived hepatocytes [1]): stronger increasing effect
expression of the adult HNF4a1-3 isoforms [2, 8]: slightly increase
expression of the fetal HNF4a4-9 isoforms [2, 8]: slightly decrease
expression of the adult HNF4a1-3 isoforms [2, 9]: strongly increase
expression of the fetal HNF4a4-9 isoforms [2, 9]: increase
expression of fetal HNF4α isoform (4-9) ([2]; 5 hr exposure with 1 μM RA, 7 days later): raised over control values
expression of HNF4α isoforms 1-3 ([2]; 5 hr exposure with 1 μM RA, 7 days later, vs untreated control cells): slightly lower
expression of HNF4α isoforms 1-3 ([2]; 5 hr exposure with 1 μM RA, immediately after the exposure): increases
expression of HNF4α isoforms 4-9 ([2]; 5 hr exposure with 1 μM RA, immediately after the exposure, vs control): slightly lower
ratio of HNF4a 1-3 isoforms/4-9 isoforms ([2]; 5 hr exposures): do not increase
ratio of HNF4a 1-3 isoforms/4-9 isoforms ([2]; 24 hr and 48 hr RA-exposure and long term/continuous treatment): increase the 1-3/4-9 ratio of hESC-derived hepatocytes to levels similar as in hp hep
mRNA expression of the adult hepatic gene CYP3A4 ([3]; 5 hr RA-exposure (1 μM) on day 21, immediately after and 2 and 7 days later (day 23 and 30)): increase
decrease of expression of the fetal hepatic gene CYP3A7 ([3]; 5 hr exposure on day 21, 2 days later on day 23): strongly
decrease of expression of the fetal hepatic gene CYP3A7 ([3]; 5 hr exposure on day 21, immediately after the exposure on day 21): slightly
increase of mRNA expression of the adult hepatic gene PXR ([3]; 5 hr exposure on day 21, measured on day 21): not immediately after the 5 hr exposure
mRNA expression of the adult hepatic gene PXR ([3]; 5 hr exposure on day 21, measured on day 23): increases
mRNA expression of the adult hepatic gene PXR ([3]; 24 hr RA-exposure on day 22-23): increases
adult CYP3A4 expression ([3]; 24 hr RA-exposure on day 22-23, day 23): immediate up-regulation
expression of the fetal hepatic gene CYP3A7 ([3]; 24 hr RA-exposure on day 22-23, immediately after the exposure on day 23): strongly decreases
fetal hepatic gene α-Fetoprotein (AFP) expression [3, 10]: stronger down-regulation
mRNA expression of the adult hepatic gene CAR [3, 10]: higher increase
binding to and activation of RXR and RAR (RXR; Allenby et al., Idres et al.): binds to and activates both RXR and RAR

Nc1ncn([C@H]2C[C@H](O)[C@@H](CO)O2)c(=O)n1 [5-aza-2-deoxycytidine]
CYP2C9 activity [4]: No additional increase
CYP2C9 activity (hESC-derived hepatocytes [5]): No additional increase

Nc1ncn([C@@H]2O[C@H](CO)[C@@H](O)[C@H]2O)c(=O)n1 [5-azacytidine]
Oct4 and Nanog mRNA [6]: significantly decreased
mRNA expression of the DE markers Sox17 and Cxcr4 [6]: No significant changes

CC1=C(\C=C/C(C)=C/C=C/C(C)=C/C(=O)O)C(C)(C)CCC1 [7-cis retinoic acid]
binding to RAR and RXR (RAR): specifically bind RAR, but not to RXR

CC1=C(/C=C/C(C)=C/C=C\C(C)=C\C(=O)O)C(C)(C)CCC1 [11-cis-retinoic acid]
binding to RAR and RXR (RAR): specifically bind RAR, but not to RXR
affinity of binding to RXR (RXR): much lower affinity

CC1=C(/C=C/C(C)=C/C=C/C(C)=C\C(=O)O)C(C)(C)CCC1 [13cis RA, 13-cis-retinoic acid]
binding to RAR and RXR (RAR): specifically bind RAR, but not to RXR
affinity of binding to RXR (RXR): much lower affinity

CC1=C(/C=C/C(C)=C/C=C/C(C)=C/C(=O)O)C(C)(C)CCC1 [ATRA, all trans-retinoic acid]
binding to RAR and RXR (RAR): specifically bind RAR, but not to RXR
affinity of binding to RXR (RXR): much lower affinity
CYP2C9 activity [7]: slightly smaller increase

C=C(c1ccc(C(=O)O)cc1)c1cc2c(cc1C)C(C)(C)CCC2(C)C [LGD1069]
CYP2C9 activity [7]: slightly smaller increase
